Tests used:
[1] = system: Reduced glutathione (GSH); test: Reduced glutathione (GSH) assay in brain homogenate; format: in vivo; conditions: brain THS of mice, scopolamine 1.5 mg/kg i.p.; donepezil and compounds 2 mg/kg p.o.; mean ± SD
Experimental: (§1) The animals were properly acclimated before being randomly placed into 12 groups (I-XII), with six animals in each group. […] Following the delivery of the dose to the mouse, the rodent's behaviour was assessed using the traditional Morris water maze (MWM) technique.
(§2) After five days of behavioral assessment, the mice's brains were removed and homogenized (blended) in chilled phosphate buffer (pH 7.4) at a concentration of 10% w/v (weight per volume). The homogenates were then centrifuged (spun at high speed) for 20 min at 4 °C to separate the supernatant (liquid) from the pellet (solid material). The supernatant was then collected to measure biological substances.
The method described by Jollow et al. was used to measure glutathione (GSH) levels. First, 1.0 mL of 4% sulfosalicylic acid was added to 1.0 mL of tissue homogenate to precipitate the GSH. The mixture was then incubated at 4 °C for 1 h and centrifuged at 1200 rpm for 10 min at 4 °C. The supernatant was collected and diluted to a final volume of 3.0 mL with phosphate buffer and Ellman's reagent. […]

[2] = target: T1, Acetylcholinesterase (AChE) (Mus musculus, UniProt P21836); conditions: brain THS of mice, scopolamine 1.5 mg/kg i.p.; donepezil and compounds 2 mg/kg p.o.; mean ± SD
T1 sequence (P21836 32-614): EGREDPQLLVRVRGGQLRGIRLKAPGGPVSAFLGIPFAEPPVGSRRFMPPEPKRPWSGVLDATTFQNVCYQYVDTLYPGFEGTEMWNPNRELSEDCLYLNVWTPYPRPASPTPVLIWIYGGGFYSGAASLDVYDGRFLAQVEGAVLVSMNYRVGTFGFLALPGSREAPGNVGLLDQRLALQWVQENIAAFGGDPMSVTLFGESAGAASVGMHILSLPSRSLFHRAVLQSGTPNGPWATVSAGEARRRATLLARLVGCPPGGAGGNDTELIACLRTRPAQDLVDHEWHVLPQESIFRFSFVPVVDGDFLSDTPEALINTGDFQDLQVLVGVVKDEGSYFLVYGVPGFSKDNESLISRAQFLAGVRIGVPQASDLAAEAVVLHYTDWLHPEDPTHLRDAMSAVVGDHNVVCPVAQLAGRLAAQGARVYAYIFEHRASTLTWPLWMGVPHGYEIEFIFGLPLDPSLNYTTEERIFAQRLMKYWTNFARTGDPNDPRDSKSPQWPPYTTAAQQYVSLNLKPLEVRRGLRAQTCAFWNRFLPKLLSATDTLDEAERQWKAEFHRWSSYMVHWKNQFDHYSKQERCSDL
Experimental: as §1, §2
Employing Ellman et al., methodology, AChE levels were quantified in tissue homogenate supernatant (THS) to evaluate cholinergic abnormalities.

[3] = system: scopolamine-induced memory impairment and learning disability in mice; test: Morris water maze, scopolamine-induced memory impairment; format: in vivo, Swiss albino male mice; conditions: for escape latency versus scopolamine-treated mice (in words): 2 mg/kg, day 1 to 5; for Escape latency, 2nd Day: day 2; for Escape latency, 3rd Day: day 3; for Escape latency, 4th Day: day 4; for Escape latency, 5th Day: day 5
Experimental: Swiss albino male mice weighing 25–30 g were purchased from LLRUVAS in Hisar, Haryana, India. […] The housing, care, and handling of the animals were done per CPCSEA requirements. The animals were exposed to the laboratory setting for seven days before the experiment.
as §1
Five days of continuous animal evaluations were conducted using the MWM model. […] The tank was placed in a dim laboratory, and using wires anchored at the pool's edge at an angle to one another, it was divided into four equal pieces (P1–P4). A stage in the targeted area (P4) of the pool with an upper face (6 × 6 cm^2) immersed in the water (1.0 cm below the surface). The location of the stage stayed the same throughout the evaluation. The animals were subjected to water pools throughout the evaluation by turning their heads towards the wall from any of the four segments, namely P1-P4, and being given 90 s to recognise the stage placed in a pool. If the animal couldn't get to the stage in 90 s, they were gently guided onto the stage under supervision. On the sixth day, one of the parameters used to determine if cognitive impairments have recovered was the time it took the mice to travel from the initial portion to locate the hidden stage in the intended part (escape latency). […]

malondialdehyde (MDA) = test: Lipid peroxidation (LPO) assay, MDA in brain homogenate; format: in vivo; conditions: brain THS of mice, scopolamine 1.5 mg/kg i.p.; donepezil and compounds 2 mg/kg p.o.; mean ± SD
Experimental: as §1, §2
The amount of malondialdehyde (MDA), a marker of lipid peroxidation (LPO), was measured using a method described by Wills[10]. Tris–HCl buffer and THS were mixed and incubated at 37 °C for 2 h with 10% trichloroacetic acid. After incubation, the mixture was centrifuged again (at 1000 rpm for 10 min). […] After cooling, 1.0 mL of double-distilled water was added, and the absorbance was measured at 532 nm.

nitrite = test: Nitrite assay (Greiss reagent) in brain homogenate; format: in vivo; conditions: brain THS of mice, scopolamine 1.5 mg/kg i.p.; donepezil and compounds 2 mg/kg p.o.; mean ± SD
Experimental: as §1, §2
The amount of nitric oxide in THS was calculated using Greiss' reagent, a mixture of chemicals that reacts with nitric oxide to produce a colored product. The absorbance of the colored product was computed at 540 nm and the concentration of nitrite was determined using a standard curve of known nitrite concentrations.

[4] = system: Superoxide dismutase (SOD); test: Superoxide dismutase (SOD) assay in brain homogenate; format: in vivo; conditions: brain THS of mice, scopolamine 1.5 mg/kg i.p.; donepezil and compounds 2 mg/kg p.o.; mean ± SD
Experimental: as §1, §2
The samples contained EDTA, sodium carbonate, and NBT, and the assay was performed using Kono's method. Each sample tube contained 2.0 mL of this mixture, as well as THS and hydroxylamine. The absorbance of the mixture was measured at 560 nm every 30 or 60 s for 2 min to track changes in absorbance.

Catalase = Catalase assay in brain homogenate; format: in vivo; conditions: brain THS of mice, scopolamine 1.5 mg/kg i.p.; donepezil and compounds 2 mg/kg p.o.; mean ± SD
Experimental: as §1, §2
Employing the methodology of Luck et al., catalase activity was quantified. The sample contained H2O2 (1.0 mL, 0.019 M), phosphate buffer (1.95 mL, 0.05 M, pH 7.0), and THS (0.05 mL). The optical density was computed at a wavelength of 240 nm. The findings were shown as μM H2O2 decomposition/min/mg protein[13].

[5] = mice, scopolamine 1.5 mg/kg i.p., donepezil and compounds 2 mg/kg p.o. with scopolamine, mean ± SD

| Substance | GSH assay, μmol of GSH/mg Protein [1] | μM of AChE/min/mg protein [2] | escape latency versus scopolamine-treated mice (in words) [3] | Escape latency, 1st Day ([3]; mice, scopolamine 1.5 mg/kg i.p., donepezil and compounds 2 mg/kg p.o. with scopolamine, day 1, mean ± SD) [s] | Escape latency, 2nd Day [3, 5] [s] | Escape latency, 3rd Day [3, 5] [s] | Escape latency, 4th Day [3, 5] [s] | Escape latency, 5th Day [3, 5] [s] | LPO assay, MDA levels (malondialdehyde (MDA)) | Nitrite assay, nitrite conc. (nitrite) [μM/mg protein] | SOD assay, SOD units/mg protein [4] [SOD units/mg protein] | Catalase assay, Catalase activity (Catalase) [min⁻¹] |
| --- | --- | --- | --- | --- | --- | --- | --- | --- | --- | --- | --- | --- |
| N-(1-(1-(3,4-dimethoxybenzyl)-2-oxopyrrolidin-3-yl)piperidin-4-yl)-2,4-difluorobenzenesulfonamide [Compound 10] | 0.10 ± 0.005 μmol of GSH/mg Protein | 0.01 ± 0.01 μM of AChE/min/mg protein | significantly reduced escape latency | 80.33 ± 1.09 | 36 ± 1.09 | 25.33 ± 1.79 | 17 ± 1.67 | 3.66 ± 1.88 | 8.52 ± 0.05 nM/mg of tissue | 12.82 ± 0.04 | 3.07 ± 0.04 | 4.3 ± 0.01 |
| N-(1-(1-(3,4-dimethoxybenzyl)-2-oxopyrrolidin-3-yl)piperidin-4-yl)-4-fluorobenzenesulfonamide [Compound 8] | 0.11 ± 0.001 μmol of GSH/mg Protein | 0.01 ± 0.01 μM of AChE/min/mg protein | significantly reduced escape latency |  | 43 ± 2.68 | 22.66 ± 1.79 | 14.16 ± 2.56 | 5.66 ± 1.97 | 9.71 ± 0.03 nM/mg of tissue | 11.92 ± 0.05 | 4.07 ± 0.03 | 5.23 ± 0.02 |

Source: article PMC10799042 (Scientific Reports, 2024)
